The subject of assay [1] is IAR20 PC1 cells. Nature of the assay: Uptake of fluid-phase marker horseradish peroxidase. Conditions: monensin treatment. It is filed as cell-based, rat.
The test system of assay [2] is IAR20 PC1 cells. As to the kind of experiment: Factor-based classification of cell shape phenotype from interference contours (predicted time in culture). The arrangement: species or system rat. As to the method:
Cell lines and interference preparations. Equations were developed to define changes in the signature-type for two epithelial cell lines that underwent transformation over a prolonged time of […] culture. […] IAR20 PC1 was a clonal derivative of a line called IAR20, which was cultured from liver cells of a BD-VI rat. […] Liver cells were grown in William's E medium supplemented with 10% fetal bovine serum, whereas the tracheal cells were grown in Waymouth's medium containing fetal bovine serum plus 0.1 μg/ml insulin and 0.1 μg /ml hydrocortisone. The cells were maintained and subcultured as described elsewhere (1,3). For experiments with insulin supplementation, insulin concentrations were raised to 1 and 10 μg/ml and maintained for two passages before the cells were used.
Information about shape features was derived from interference images. These were generated by culturing cells on anodized tantalum substrates, and then imaging them in reflected light. Cells were plated on substrates in replicate dishes, left overnight, and then exposed to experimental agents or to the solvent vehicle alone. After incubation with the agents for 2–5 h, samples were recovered, fixed in buffered 3% glutaraldehyde (pH 7.3), and air-dried. Randomly selected cells were imaged in a Zeiss Universal microscope, and the outlines of their three lowermost interference contours were digitized. […] Each experimental treatment was represented by a total of 50 cells.
Classification procedures. The classification methods employed a subset of the contour shape variables. Each 50-cell sample was submitted to multiple linear regression analysis for classification alongside a group of cells representing normal and transformed reference samples. The latter were obtained from the lines that underwent transformation as described above. Because the signature-type value was assigned relative to these samples, the solutions were in units of predicted time in culture. After obtaining such a value for each cell in an experiment, the differences in mean predicted times for treated and control cells were calculated. The sum of the squared standard deviations, divided by the number of observations, n, was used to compute the confidence limits of the mean: (s1)^2/n+(s2)^2/n Where s was the standard deviation for each sample. Dividing the difference between the means by the square root of the above expression yields a value that can be related to the degree of confidence, 1-α. […] This value was equivalent to a probability that the two samples differed of P≦0.02.
Again, classification of samples from experiments employed multiple linear regression methods, based on factors scores rather than on contour shape variables. Factors were generated by combining into a single database, the contour shape variables from highly malignant epithelial cells and precancerous lines that change progressively, eventually become neoplastic. […] Principal components were extracted and transformed by a pattern of rotation to produce latent factors, which described variances that had thereby been rendered orthogonal (8). Factor scores for each cell represented in the database to be estimated. These factor scores from known IAR20 PC1 or 1000 W cells are used as a reference to classify data from short-term experiments on the respective samples. The factors used in classification were selected by the SAS REG procedure (8). […] Predicted time-in-culture values were obtained by submitting the experimental cells to analysis, as described above for simple variables. The statistical significance of differences among sample means within each experiment was determined by the Duncan multiple range test.

A value given as a limit tells only on which side of the number the result lay.

Turning to `CC[C@@]1([C@@H]2O[C@@H]([C@H]3O[C@@](O)(CO)[C@H](C)C[C@@H]3C)C[C@@H]2C)CC[C@H]([C@]2(C)CC[C@]3(C[C@H](O)[C@@H](C)[C@@H]([C@@H](C)[C@@H](OC)[C@H](C)C(=O)O)O3)O2)O1` [monensin], the “time after initial exposure by which horseradish peroxidase uptake was inhibited” value in the assay on IAR20 PC1 cells [1] is given as at most 30 min. The “average predicted time (factor-based classification)” value with IAR20 PC1 cells [2] (24 μM monensin alone or together with 50 μM ouabain, control 318 days) is 344 days. In addition, in the assay on IAR20 PC1 cells [2] (versus control), the “factor #4 value (filopodia / sharp projections at cell edge)” value is on record as “change in factor #4”. In addition, in the assay with IAR20 PC1 cells [2] (versus control, monensin 24 μM), the “factor #8 value (sharp features in the second contour)” value is given as “affected”.

Source of the values: patent US7050620B2, “Method of assaying shape and structural features in cells” (priority 2001, dated 2006).
